Tested on: Eschericia coli strain ATCC25922
Assay: standard microdilution assay to determine minimum inhibitory concentrations (MICs)
Type: cell-based
Conditions: Escherichia coli, read-out: E. coli ATCC25922 MIC
Method: Minimum inhibitory concentrations (MICs) are determined by the microdilution method, typically in a final volume of 100 microliters, according to protocols outlined by The Clinical and Laboratory Standards Institute [CLSI; formerly the National Committee for Clinical Laboratory Standards (NCCLS)]. See CLSI: Methods for dilution antimicrobial susceptibility tests for bacteria that grow aerobically; approved standard-fifth edition. Wayne, Pa.: NCCLS; 2000. The assays can be also be performed in microtiter trays according to conventional methodologies as published by the CLSI. See CLSI. Methods for Dilution Antimicrobial Susceptibility Tests for Bacteria That Grow Aerobically; Approved Standard-Seventh Edition. CLSI Document M7-A7 [ISBN 1-56238-587-9] CLSI, 940 West Valley Road, Suite 1400, Wayne Pa. 19087-1898 USA, 2006).
The compounds of the present invention were tested for antimicrobial activity. The compounds were run against Eschericia coli strain ATCC25922 using a standard microdilution assay to determine minimum inhibitory concentrations (MICs). […] A “N/A” means that data is unavailable. It will be recognized by one skilled in the art that the compounds can be assessed against other bacterial organisms and that the presentation of data for activity against Eschericia coli is illustrative and in no way is intended to limit the scope of the present invention. The compounds of the present invention can be assayed against a range of other microorganisms depending upon the performance activity desired to be gathered. Furthermore, the “+”, “−”, and “N/A” representation and the selection of a cutoff value of 16 micrograms/ml is also illustrative and in no way is intended to limit the scope of the present invention.

Compound	MIC [µg/mL]
NCCCNCc1ccc(-n2cc3c(nc2=O)Nc2ccc(Br)cc2O3)cc1 [Compound 442]	> 16
NCCCN1CCN(C(=O)Cn2cc3c(nc2=O)Nc2ccccc2O3)CC1 [Compound 392]	> 16
COc1ccc(-c2ccc3c(c2)Nc2nc(=O)n(C4CCN(CCCN)CC4)cc2O3)cc1F [Compound 615]	> 16
CN(C)CCCOc1cccc2c1Nc1nc(=O)n(C3CCC(CN)CC3)cc1O2 (stereo not shown) [Compound 1421]	> 16
NC1CCC(n2cc3c(nc2=O)Nc2cc(C4CCN(CC(=O)N(CC5CC5(F)F)C5CCNCC5)CC4)ccc2O3)CC1 (stereo not shown) [Compound 1042]	> 16
NCCCN1CCC(n2cc3c(nc2=O)Nc2cc(C4CCN(C(=O)CN)CC4)ccc2O3)CC1 [Compound 714]	> 16
O=c1nc2c(cn1C1CCNCC1)Oc1ccc(CCc3cccc(F)c3)cc1N2 [Compound 579]	> 16
NCCCNCc1ccc(-c2cn3c(=O)cc(-c4ccccc4OC(F)(F)F)[nH]c3nc2=O)cc1 [Compound 371]	> 16
O=c1nc2c(cn1C1CCNCC1)Oc1ccccc1N2 [Compound 578]	> 16
N=C(N)NCCCN[C@H]1CC[C@H](n2cc3c(nc2=O)Nc2c(OCCN)cccc2O3)CC1 [Compound 4004c]	< 16
O=c1nc2c(cn1C1CCC(NCCCc3cnn[nH]3)CC1)Oc1ccc(C3CCNCC3)cc1N2 (stereo not shown) [Compound 1212]	> 16
NC[C@H]1CC[C@H](n2cc3c(nc2=O)Nc2c(OCc4ccccc4)cccc2O3)CC1 [Compound 1467]	> 16
NCCCNC1CCC(n2cc3c(nc2=O)Nc2cc(C(=O)NCCN4CCNCC4)ccc2O3)CC1 (stereo not shown) [Compound 740]	< 16
NCCCn1c(-c2ccc(F)cc2)cn2c(=O)c(C3=CCNCC3)cnc12 [Compound 570]	> 16
N=C(N)NCCC(=O)NC1CCC(n2cc3c(nc2=O)Nc2cc(C4CCNCC4)ccc2O3)CC1 (stereo not shown) [Compound 1032]	< 16
N=C(N)NCCS(=O)(=O)NC1CCC(n2cc3c(nc2=O)Nc2cc(C4CCNCC4)ccc2O3)CC1 (stereo not shown) [Compound 1133]	< 16
N=C(N)NCCCN1CCC(n2cc3c(nc2=O)Nc2cc(C4CCN(C(=O)CNC(=N)N)CC4)ccc2O3)CC1 [Compound 715]	< 16
O=c1nc2c(cn1C1CCCNCC1)Oc1ccccc1N2 (stereo not shown) [Compound 595]	> 16
NC1CCC(n2cc3c(nc2=O)Nc2cc(C4CCNCC4)ccc2O3)CC1 (stereo not shown) [Compound 972]	> 16
N=C(N)NCCCN1CCC(n2cc3c(nc2=O)Nc2cc(C(=O)NCCc4ccc(F)cc4)ccc2O3)CC1 [Compound 659]	> 16
O=c1nc2c(cn1C1CCCNCC1)Oc1ccc(CNCCCN3CCNCC3)cc1N2 (stereo not shown) [Compound 920]	> 16
CCn1cc2c(nc1=O)Nc1cc(CNCCCN3CCNCC3)ccc1O2 [Compound 919]	> 16
NCCCNCc1ccc(-c2cn3c(=O)cc(-c4ccc(C(F)(F)F)cc4)[nH]c3nc2=O)cc1 [Compound 391]	> 16

Compound	MIC [µg/mL]
NCCCN1CCC(n2cc3c(nc2=O)Nc2ccccc2O3)CC1 [Compound 528]	> 16
CC(=O)NCCOc1cccc2c1Nc1nc(=O)n(C3CCC(CN)CC3)cc1O2 (stereo not shown) [Compound 1426]	> 16
NCCCNCc1ccc(-c2cn3c(=O)cc(-c4ccc(OC(F)(F)F)cc4)[nH]c3nc2=O)cc1 [Compound 377]	> 16
N=C(N)NCCCN1CCC(n2cc3c(nc2=O)Nc2cc(C(=O)NCc4ccc(Br)cc4)ccc2O3)CC1 [Compound 638]	> 16
N=C(N)NCCCN1CCC(n2cc3c(nc2=O)Nc2cc(C4CCN(C(=O)C(N)CO)CC4)ccc2O3)CC1 (stereo not shown) [Compound 718]	> 16
N=C(N)NCCCN1CCC(n2cc3c(nc2=O)Nc2cc(C4CCN(C(=O)Nc5ccc(F)cc5)CC4)ccc2O3)CC1 [Compound 733]	> 16
O=c1nc2c(cn1C1CCC(NCCCN3CCCCC3)CC1)Oc1ccc(C3CCNCC3)cc1N2 (stereo not shown) [Compound 1234]	< 16
NC1CCCN(C(=O)c2ccc3c(c2)Nc2nc(=O)n(C4CCCNCC4)cc2O3)C1 (stereo not shown) [Compound 891]	> 16
NCCCCCN1CC[C@@H](n2cc3c(nc2=O)Nc2ccccc2O3)C1 [Compound 543]	> 16
N=C(N)NCCCN(C(=O)CCNC(=N)N)C1CCC(n2cc3c(nc2=O)Nc2cc(C4CCNCC4)ccc2O3)CC1 (stereo not shown) [Compound 1135]	< 16
NCCS(=O)(=O)NC1CCC(n2cc3c(nc2=O)Nc2cc(C4CCNCC4)ccc2O3)CC1 (stereo not shown) [Compound 1147]	> 16
NCCCNCc1ccc(-c2cn3c(=O)cc(Cc4ccc(F)c(F)c4)[nH]c3nc2=O)cc1 [Compound 411]	> 16
NC[C@H]1CC[C@H](n2cc3c(nc2=O)Nc2c(OCCNC(N)=O)cccc2O3)CC1 [Compound 4001c]	> 16
N=C(N)NCCCNC1CCC(n2cc3c(nc2=O)Nc2cc(-c4ccc(C(F)(F)F)nc4)ccc2O3)CC1 (stereo not shown) [Compound 671]	> 16
NCCCN1CCC(n2cc3c(nc2=O)Nc2cc(C(=O)NCCN4CCC[C@H](N)C4)ccc2O3)CC1 [Compound 798]	> 16
N[C@H]1CCCN(CCNCc2ccc3c(c2)Nc2nc(=O)n(C4CCCNCC4)cc2O3)C1 (stereo partly shown) [Compound 921]	> 16
NCCCN1CCC(n2cc3c(nc2=O)Nc2cc(CCc4cccc(F)c4)ccc2O3)CC1 [Compound 592, 3-[1-(3-Amino-propyl)-piperidin-4-yl]-7-[2-(3-fluoro-phenyl)-ethyl]-3H,9H-10-oxa-1,3,9-triaza-anthracen-2-one]	< 16
N=C(N)NCCCN1CCC(n2cc3c(nc2=O)Nc2ccccc2O3)CC1 [Compound 529]	> 16
NCCNC(=O)C1CCC(n2cc3c(nc2=O)Nc2cc(C4CCNCC4)ccc2O3)CC1 (stereo not shown) [Compound 1238]	< 16
N=C(N)NCCCN1CCCC(n2cc3c(nc2=O)Nc2cc(-c4ccc(C(F)(F)F)nc4)ccc2O3)CC1 (stereo not shown) [Compound 667]	> 16
NCCCNCc1ccc(-n2cc3c(nc2=O)Nc2ccc(C#Cc4ccc(F)cc4)cc2O3)cc1 [Compound 460]	> 16
NC[C@H]1CC[C@H](n2cc3c(nc2=O)Nc2c(OCCCCl)cccc2O3)CC1 [Compound 1450]	> 16
N=C(N)NCCCN1CCCC(n2cc3c(nc2=O)Nc2cc(C(=O)Nc4ccc(F)cc4F)ccc2O3)CC1 (stereo not shown) [Compound 657]	> 16

Compound	MIC [µg/mL]
Cc1ccc(CCCN(CCCc2ccc(C)o2)C2CCC(n3cc4c(nc3=O)Nc3cc(C5CCNCC5)ccc3O4)CC2)o1 (stereo not shown) [Compound 1198]	> 16
Cc1ccc(CCCNC2CCC(n3cc4c(nc3=O)Nc3cc(C5CCNCC5)ccc3O4)CC2)o1 (stereo not shown) [Compound 1197]	> 16
N=C(N)NCCCN1CCC(n2cc3c(nc2=O)Nc2cc(C4CCN(S(=O)(=O)C5CC5)CC4)ccc2O3)CC1 [Compound 694]	> 16
N=C(N)NCCCNC1CCC(n2cc3c(nc2=O)Nc2cc(C4CCN(C(=O)CNC(=N)N)CC4)ccc2O3)CC1 (stereo not shown) [Compound 752]	< 16
NCCCNC1CCC(n2cc3c(nc2=O)Nc2cc(C(=O)NCCCN4CCNCC4)ccc2O3)CC1 (stereo not shown) [Compound 731]	< 16
N=C(N)NCCCN1CCC(n2cc3c(nc2=O)Nc2cc(C(=O)Nc4ccc(F)cc4F)ccc2O3)CC1 [Compound 656]	> 16
O=C(NCCCN1CCNCC1)c1ccc2c(c1)Nc1nc(=O)n(C3CCCNCC3)cc1O2 (stereo not shown) [Compound 890]	> 16
NCCCN1CCCC(n2cc3c(nc2=O)Nc2cc(C(=O)N4CCC[C@@H](N)C4)ccc2O3)CC1 (stereo partly shown) [Compound 888]	> 16
NCCCNC1CCC(n2cc3c(nc2=O)Nc2cc(C4CCN(C(=O)CN(Cc5ccc(F)c(F)c5)C5CCNCC5)CC4)ccc2O3)CC1 (stereo not shown) [Compound 754]	< 16
N=C(N)NCCCN1CCC(n2cc3c(nc2=O)Nc2cc(C4CCN(C(=O)CN(Cc5ccc(F)c(F)c5)C5CCNCC5)CC4)ccc2O3)CC1 [Compound 749]	< 16
O=c1nc2[nH]c(-c3ccccc3F)cc(=O)n2cc1I [Compound 375]	> 16
N=C(N)NCCCN1CCC(n2cc3c(nc2=O)Nc2cc(C(=O)NCCN4CCOCC4)ccc2O3)CC1 [Compound 669]	> 16
CN(C)c1ncc(-c2ccc3c(c2)Nc2nc(=O)n(C4CCN(CCCN)CC4)cc2O3)cn1 [Compound 614]	> 16
NCCOc1cccc2c1Nc1nc(=O)n([C@H]3CC[C@H](CN)CC3)cc1O2 [Compound 1427]	> 16
O=C1OCCN1CCCNC1CCC(n2cc3c(nc2=O)Nc2cc(C4CCNCC4)ccc2O3)CC1 (stereo not shown) [Compound 1213]	> 16
CN(C)c1ncc(-c2ccc3c(c2)Nc2nc(=O)n(C4CCN(CCCNC(=N)N)CC4)cc2O3)cn1 [Compound 627]	< 16
N=C(N)NCCCN1CCCC(n2cc3c(nc2=O)Nc2cc(C(=O)NCCc4cnc[nH]4)ccc2O3)CC1 (stereo not shown) [Compound 707]	< 16
N=C(N)NCCCN(C(=O)CCN)C1CCC(n2cc3c(nc2=O)Nc2cc(C4CCNCC4)ccc2O3)CC1 (stereo not shown) [Compound 1134]	< 16
N=C(N)NCCCN1CCCC(n2cc3c(nc2=O)Nc2cc(C4CCN(C(=O)C5(N)CCCC5)CC4)ccc2O3)CC1 (stereo not shown) [Compound 777]	< 16
N=C(N)NCCCNC1CCC(n2cc3c(nc2=O)Nc2cc(C(=O)NCCc4c[nH]cn4)ccc2O3)CC1 (stereo not shown) [Compound 763]	> 16
O=c1nc2c(cn1C1CCC(NCCCN3CCNCC3)CC1)Oc1ccc(C3CCNCC3)cc1N2 (stereo not shown) [Compound 1193]	> 16
